Reference: patent publication US6977180B2, “Biosensor” (Duke University, priority 2001, dated 2005)

Columns and labels:
[1] = electrochemical (ac voltammetry) ligand binding of protein-modified gold electrode, glucose; details: gold disk electrode, 0.1 kHz, read-out: eKd(glucose), dissociation constant of the assembly, determined electrochemically
Experimental: FIGS. 4A–4D. Ligand-mediated electrochemical responses of four electroactive biomolecular assemblies. Inserts show the current responses observed at different ligand concentrations, measured by scanning the potential at a constant frequency. FIG. 4A. G174C-MBP (1 kHz; ^eKd(maltose)=4 μM; ^fKd(maltose)=1 μM), FIG. 4B. L255C-GBP (0.1 kHz; ^eKd(glucose)=2.0 μM; ^fKd(glucose)=0.4 μM), FIG. 4C. G174C-eZBP, a redesigned variant of MBP that binds zinc (1 kHz; ^eKd (zinc)=10 μM; ^fKd(zinc)=3 μM), FIG. 4D. […]
Electrochemistry. […] Ac current baselines were calculated by linear extrapolation between equidistant potentials from the observed midpoint reduction potential (˜220 mV), as reported previously (Creager et al, Anal. Chem. 70:4257–4263 (1998)). […]

[2] = solution ligand binding by intrinsic tryptophan fluorescence of the conjugates, glucose; details: read-out: fKd(glucose), dissociation constant of the protein free in solution
Experimental: FIGS. 4A–4D. Ligand-mediated electrochemical responses of four electroactive biomolecular assemblies. Inserts show the current responses observed at different ligand concentrations, measured by scanning the potential at a constant frequency. FIG. 4A. G174C-MBP (1 kHz; ^eKd(maltose)=4 μM; ^fKd(maltose)=1 μM), FIG. 4B. L255C-GBP (0.1 kHz; ^eKd(glucose)=2.0 μM; ^fKd(glucose)=0.4 μM), FIG. 4C. G174C-eZBP, a redesigned variant of MBP that binds zinc (1 kHz; ^eKd (zinc)=10 μM; ^fKd(zinc)=3 μM), FIG. 4D. E163C-QBP (0.16 kHz; ^eKd(glutamine)=1.0 μM; ^fKd(glutamine)=0.2 μM. Two binding constants are reported: ^eKd is dissociation constant of the assembly, determined electrochemically; ^fKd is the dissocation constant of the protein free in solution, determined by measuring changes in the intrinsic tryptophan fluorescence of the conjugates. (For every protein presented, the ligand-binding affinities determined electrochemically using a disk gold electrode are 2–5 fold weaker than those in solution. However, if a gold microelectrode prepared by flame annealing a gold wire (Creager et al, Anal. Chem. 70:4257 (1998)) is used instead of a gold disk electrode, the electrochemically determined affinities are similar to the solution affinities.
Protein purification and labeling. […]

- Kd [1]: 2 µM
- Kd [2]: 0.4 µM
Substance: L255C-GBP: glucose-binding protein mutant L255C carrying the Ru(II) redox reporter
